Legend:
[1] = Pooled regression models of stable warfarin dose versus CYP4F2 rs2108622 genotype, three Caucasian cohorts; assay type: in vivo, human
From the text: Therefore, we conducted multiple regression analyses only on the *1 genotypes (n=1009), and used the observed mean dose (log scale) as the predicted value for those with only non-wild CYP2C9 alleles (*2/*2, *2/*3, and *3/*3, n=42). Accordingly, our models that include genetic variables are composites of multiple regression and simple mean-based estimation approaches.
To assess the relative contribution of clinical and genetic factors, three models were developed using different sets of potential predictor variables: clinical factors only (gender, age, body surface area, and target international normalized ratio), clinical factors plus CYP2C9 and VKORC1, and clinical factors CYP2C9, VKORC1, and rs2108622. A modified step-down approach^29 was used, starting with a “full” model which included all potential predictors pertinent to that model, effects to allow the three study sites to differ, two-factor interactions (including those by site), and quadratic terms for age, body surface area, and target international normalized ratio. […] The regression models were finalized after evaluating residuals and excluding cases with large residuals as outliers (|Studentized Residual|>3).
The explanatory power for the three final models was assessed graphically and by using the adjusted r-squared (R^2adj). The R^2adj statistic measures the proportion of the total variability explained by the model with adjustment for the number of parameters in the model. The statistic was directly calculated to use all cases under analysis by pooling across both parts of the composite models and by applying the final regression model to any outliers dropped when estimating the parameters in the regression models.

[2] = Stable therapeutic warfarin dose by CYP2C9, VKORC1 and rs2108622 (CYP4F2) genotype, 424 subjects; assay type: in vivo, human
From the text: The initial cohort was recruited at Marshfield Clinic, a multi-specialty group practice in Wisconsin as described.^6, 16 Patients were excluded from the study if they were known to have cancer, renal or hepatic insufficiency, or congestive heart failure.
The targeted human DMET 1.0 assay (Affymetrix, Inc, Santa Clara, Calif.) utilizes molecular inversion probes and GeneChip universal tag arrays to target 1228 single nucleotide polymorphisms (SNP) within 170 genes for metabolic enzymes and transport and regulatory proteins (Table 2).
The laboratory protocol followed the standard process described in the Targeted Genotyping System User Guide^25 except for a preliminary polymerase chain reaction (PCR)-amplification step aimed at resolving genotypes from 29 SNPs in regions containing pseudogenes and close homologues. GeneChip Targeted Genotyping Analysis software was used to make genotype calls and generate QC metrics including call rates, average signal, cluster quality, Hardy-Weinberg equilibrium, and reproducibility. […] Genotypes represented by the remaining 1217 SNP assays were called according to either predefined boundaries (derived from historical training sets) or dynamic clustering using the current data set. […] The remaining polymorphisms target rare mutations or SNPs prevalent in other racial groups.
VKORC1 genotypes were determined on 436 Marshfield Clinic samples as described^6 and on the remaining 61 samples using Invader® chemistry in a laboratory test developed with analyte specific reagents manufactured by Third Wave Technologies (TWT, Madison, Wis.). The laboratory developed assay used analyte-specific reagents that detect CYP2C9*2, CYP2C9*3, and VKORC1 (position −1639).^26

CC(=O)CC(c1ccccc1)c1c(O)c2ccccc2oc1=O (stereo not shown) [warfarin]
increase in warfarin dose with each T allele (CYP4F2 effect, final pooled model) ([1]; Marshfield): 12.8%
absolute contribution of CYP4F2 to stable warfarin dose ([1]; Marshfield cohort): 26%
increase in warfarin dose with each T allele (CYP4F2 effect, final pooled model) ([1]; University of Florida): 6.8%
increase in warfarin dose with each T allele (CYP4F2 effect, final pooled model) ([1]; Washington University in St. Louis): 3.8%
absolute contribution of CYP4F2 to stable warfarin dose ([1]; Washington University in St. Louis cohort): 8%
difference in warfarin dose requirement, two TT alleles versus two CC alleles of CYP4F2 rs2108622 ([1]; pooled analyses, three Caucasian cohorts stabilized on warfarin): about 1 mg/day
Geometric Mean warfarin dose ([2]; CYP2C9 *1/*1, VKORC1 CC, rs2108622 CC, N=13): 20.0 mg/week
Geometric Mean warfarin dose ([2]; CYP2C9 *1/*1, VKORC1 CC, rs2108622 CT, N=18): 21.1 mg/week
Geometric Mean warfarin dose ([2]; CYP2C9 *1/*1, VKORC1 CC, rs2108622 TT, N=2): 34.5 mg/week
Geometric Mean warfarin dose ([2]; CYP2C9 *1/*1, VKORC1 CG, rs2108622 CC, N=68): 29.6 mg/week
Geometric Mean warfarin dose ([2]; CYP2C9 *1/*1, VKORC1 CG, rs2108622 CT, N=46): 31.9 mg/week
Geometric Mean warfarin dose ([2]; CYP2C9 *1/*1, VKORC1 CG, rs2108622 TT, N=12): 37.9 mg/week
Geometric Mean warfarin dose ([2]; CYP2C9 *1/*1, VKORC1 GG, rs2108622 CC, N=64): 39.5 mg/week
Geometric Mean warfarin dose ([2]; CYP2C9 *1/*1, VKORC1 GG, rs2108622 CT, N=41): 45.1 mg/week
Geometric Mean warfarin dose ([2]; CYP2C9 *1/*1, VKORC1 GG, rs2108622 TT, N=8): 47.3 mg/week
Geometric Mean warfarin dose ([2]; CYP2C9 *1/*2, VKORC1 CC, rs2108622 CC, N=3): 16.6 mg/week
Geometric Mean warfarin dose ([2]; CYP2C9 *1/*2, VKORC1 CC, rs2108622 CT, N=5): 19.6 mg/week
Geometric Mean warfarin dose ([2]; CYP2C9 *1/*2, VKORC1 CC, rs2108622 TT, N=1): 17.5 mg/week
Geometric Mean warfarin dose ([2]; CYP2C9 *1/*2, VKORC1 CG, rs2108622 TT, N=5): 31.0 mg/week
Geometric Mean warfarin dose ([2]; CYP2C9 *1/*2, VKORC1 GG, rs2108622 CC, N=13): 29.7 mg/week
Geometric Mean warfarin dose ([2]; CYP2C9 *1/*2, VKORC1 GG, rs2108622 CT, N=17): 34.1 mg/week
Geometric Mean warfarin dose ([2]; CYP2C9 *1/*3, VKORC1 CC, rs2108622 CT, N=2): 21.3 mg/week
Geometric Mean warfarin dose ([2]; CYP2C9 *1/*3, VKORC1 CG, rs2108622 CC, N=13): 21.5 mg/week
Geometric Mean warfarin dose ([2]; CYP2C9 *1/*3, VKORC1 GG, rs2108622 CC, N=5): 22.3 mg/week
Geometric Mean warfarin dose ([2]; CYP2C9 *1/*3, VKORC1 GG, rs2108622 TT, N=3): 34.5 mg/week
Geometric Mean warfarin dose ([2]; CYP2C9 *2/*2, VKORC1 CG, rs2108622 CC, N=1): 22.0 mg/week
Geometric Mean warfarin dose ([2]; CYP2C9 *2/*2, VKORC1 CG, rs2108622 CT, N=1): 28.0 mg/week
Geometric Mean warfarin dose ([2]; CYP2C9 *2/*2, VKORC1 CG, rs2108622 TT, N=1): 35.0 mg/week
Geometric Mean warfarin dose ([2]; CYP2C9 *2/*2, VKORC1 GG, rs2108622 CC, N=1): 18.5 mg/week
Geometric Mean warfarin dose ([2]; CYP2C9 *2/*2, VKORC1 GG, rs2108622 CT, N=1): 37.5 mg/week
Geometric Mean warfarin dose ([2]; CYP2C9 *2/*2, VKORC1 GG, rs2108622 TT, N=1): 35.0 mg/week
Geometric Mean warfarin dose ([2]; CYP2C9 *2/*3, VKORC1 CC, rs2108622 CC, N=1): 20.0 mg/week
Geometric Mean warfarin dose ([2]; CYP2C9 *2/*3, VKORC1 CG, rs2108622 CT, N=1): 22.5 mg/week
Geometric Mean warfarin dose ([2]; CYP2C9 *2/*3, VKORC1 CG, rs2108622 TT, N=1): 15.0 mg/week
Geometric Mean warfarin dose ([2]; CYP2C9 *2/*3, VKORC1 GG, rs2108622 CC, N=3): 15.3 mg/week
Geometric Mean warfarin dose ([2]; CYP2C9 *3/*3, VKORC1 CG, rs2108622 CC, N=1): 6.5 mg/week
Geometric Mean warfarin dose ([2]; CYP2C9 *3/*3, VKORC1 CG, rs2108622 CT, N=1): 4.5 mg/week

Reference: US20110189675A1, “Method For Administering Anticoagulation Therapy” (Marshfield Clinic, priority 2007, published 2011)
